# From patent US10792289B2 (Horizon Orphan LLC, priority 2009, dated 2020)
# System: P. aeruginosa
# Assay: Phase 2 study: P. aeruginosa density in sputum
# Assay type: in vivo, Pseudomonas aeruginosa
# Details: EE; for Reduction in P. aeruginosa density in sputum: median Day 1 to Day 28
# Method: The following dosage regimens (as nebulizer loaded doses) were evaluated: 120 mg QD (daily); 240 mg QD (daily); and 240 mg BID (twice daily).
# Patients were assessed on Day 1, 7, 14, and 28, and then up to 28 days after completion of study drug, namely, Days 42 and 56. The end of the study was defined as the last visit of the last patient.
# Efficacy was evaluated by microbiologic assessment of sputum samples, time to need for anti-pseudomonal antimicrobials, the Cystic Fibrosis Questionaire-Revised (CFQ-R), and pulmonary function tests. […] Pair-wise comparisons between all the treatment arms were conducted as secondary analyses.
# [1] = combined 240 mg QD and BID, Baseline to Day 7
# [2] = combined 240 mg QD and BID, Baseline to Day 14
# [3] = combined 240 mg QD and BID, Baseline to Day 28
# [4] = combined 240 mg QD and BID, Day 1
# [5] = combined 240 mg QD and BID, Day 7
# [6] = combined 240 mg QD and BID, Day 14
# [7] = combined 240 mg QD and BID, Day 28
compound,measurement,setting,value
"C[C@H]1COc2c(N3CCN(C)CC3)c(F)cc3c(=O)c(C(=O)O)cn1c23 [Levofloxacin, levofloxacin]","Change in P. aeruginosa density, mean (SD)","120 mg QD, Baseline to Day 7",−0.76 (1.263) log10 CFU sputum
same,"Change in P. aeruginosa density, median","120 mg QD, Baseline to Day 7",−0.58 log10 CFU sputum
same,"Change in P. aeruginosa density, mean (SD)","120 mg QD, Baseline to Day 14",−0.10 (1.240) log10 CFU sputum
same,"Change in P. aeruginosa density, median","120 mg QD, Baseline to Day 14",0.00 log10 CFU sputum
same,"Change in P. aeruginosa density, mean (SD)","120 mg QD, Baseline to Day 28",−0.31 (1.050) log10 CFU sputum
same,"Change in P. aeruginosa density, median","120 mg QD, Baseline to Day 28",−0.20 log10 CFU sputum
same,"P. aeruginosa density, median","120 mg QD, Day 1",8.17 log10 CFU sputum
same,"P. aeruginosa density, mean (SD)","120 mg QD, Day 7",6.64 (1.818) log10 CFU sputum
same,"P. aeruginosa density, median","120 mg QD, Day 7",6.86 log10 CFU sputum
same,"P. aeruginosa density, mean (SD)","120 mg QD, Day 14",7.32 (1.643) log10 CFU sputum
same,"P. aeruginosa density, median","120 mg QD, Day 14",8.00 log10 CFU sputum
same,"P. aeruginosa density, mean (SD)","120 mg QD, Day 28",7.25 (1.431) log10 CFU sputum
same,"P. aeruginosa density, median","120 mg QD, Day 28",7.78 log10 CFU sputum
same,Reduction in P. aeruginosa density in sputum,120 mg QD,approximately 59%
same,"Change in P. aeruginosa density, mean (SD)","240 mg BID, Baseline to Day 7",−1.03 (1.921) log10 CFU sputum
same,"Change in P. aeruginosa density, median","240 mg BID, Baseline to Day 7",−0.88 log10 CFU sputum
same,"Change in P. aeruginosa density, mean (SD)","240 mg BID, Baseline to Day 14",−0.83 (1.901) log10 CFU sputum
same,"Change in P. aeruginosa density, median","240 mg BID, Baseline to Day 14",−0.91 log10 CFU sputum
same,"Change in P. aeruginosa density, mean (SD)","240 mg BID, Baseline to Day 28",−0.74 (1.488) log10 CFU sputum
same,"Change in P. aeruginosa density, median","240 mg BID, Baseline to Day 28",−0.68 log10 CFU sputum
same,"P. aeruginosa density, mean (SD)","240 mg BID, Day 1",7.26 (1.433) log10 CFU sputum
same,"P. aeruginosa density, median","240 mg BID, Day 1",7.84 log10 CFU sputum
same,"P. aeruginosa density, mean (SD)","240 mg BID, Day 7",6.23 (1.850) log10 CFU sputum
same,"P. aeruginosa density, median","240 mg BID, Day 7",6.52 log10 CFU sputum
same,"P. aeruginosa density, mean (SD)","240 mg BID, Day 14",6.43 (1.725) log10 CFU sputum
same,"P. aeruginosa density, median","240 mg BID, Day 14",6.81 log10 CFU sputum
same,"P. aeruginosa density, mean (SD)","240 mg BID, Day 28",6.65 (1.440) log10 CFU sputum
same,"P. aeruginosa density, median","240 mg BID, Day 28",6.40 log10 CFU sputum
same,Reduction in P. aeruginosa density in sputum,240 mg BID,approximately 96%
same,"Change in P. aeruginosa density, mean (SD)","240 mg QD, Baseline to Day 7",−0.25 (1.789) log10 CFU sputum
same,"Change in P. aeruginosa density, median","240 mg QD, Baseline to Day 7",−0.18 log10 CFU sputum
same,"Change in P. aeruginosa density, mean (SD)","240 mg QD, Baseline to Day 14",−0.47 (1.905) log10 CFU sputum
same,"Change in P. aeruginosa density, median","240 mg QD, Baseline to Day 14",−0.11 log10 CFU sputum
same,"Change in P. aeruginosa density, mean (SD)","240 mg QD, Baseline to Day 28",−0.38 (1.780) log10 CFU sputum
same,"Change in P. aeruginosa density, median","240 mg QD, Baseline to Day 28",−0.52 log10 CFU sputum
same,"P. aeruginosa density, mean (SD)","240 mg QD, Day 1",7.16 (1.597) log10 CFU sputum
same,"P. aeruginosa density, median","240 mg QD, Day 1",7.97 log10 CFU sputum
same,"P. aeruginosa density, mean (SD)","240 mg QD, Day 7",6.94 (1.783) log10 CFU sputum
same,"P. aeruginosa density, median","240 mg QD, Day 7",7.15 log10 CFU sputum
same,"P. aeruginosa density, mean (SD)","240 mg QD, Day 14",6.69 (1.628) log10 CFU sputum
same,"P. aeruginosa density, median","240 mg QD, Day 14",6.46 log10 CFU sputum
same,"P. aeruginosa density, mean (SD)","240 mg QD, Day 28",6.78 (1.896) log10 CFU sputum
same,"P. aeruginosa density, median","240 mg QD, Day 28",7.38 log10 CFU sputum
same,Reduction in P. aeruginosa density in sputum,240 mg QD,approximately 74%
same,"Largest difference in P. aeruginosa density, placebo vs levofloxacin",Day 7,1.62 log10 CFU/g sputum
same,"Largest difference in P. aeruginosa density, placebo vs levofloxacin",Day 14,1.39 log10 CFU/g sputum
same,"Largest difference in P. aeruginosa density, placebo vs levofloxacin",Day 28,1.88 log10 CFU/g sputum
same,"Change in P. aeruginosa density, mean (SD)",[1],−0.64 (1.833) log10 CFU sputum
same,"Change in P. aeruginosa density, median",[1],−0.37 log10 CFU sputum
same,"Change in P. aeruginosa density, mean (SD)",[2],−0.65 (1.898) log10 CFU sputum
same,"Change in P. aeruginosa density, median",[2],−0.46 log10 CFU sputum
same,"Change in P. aeruginosa density, mean (SD)",[3],−0.55 (1.645) log10 CFU sputum
same,"Change in P. aeruginosa density, median",[3],−0.58 log10 CFU sputum
same,"P. aeruginosa density, mean (SD)",[4],7.21 (1.508) log10 CFU sputum
same,"P. aeruginosa density, median",[4],7.90 log10 CFU sputum
same,"P. aeruginosa density, mean (SD)",[5],6.59 (1.838) log10 CFU sputum
same,"P. aeruginosa density, median",[5],6.77 log10 CFU sputum
same,"P. aeruginosa density, mean (SD)",[6],6.56 (1.669) log10 CFU sputum
same,"P. aeruginosa density, median",[6],6.78 log10 CFU sputum
same,"P. aeruginosa density, mean (SD)",[7],6.72 (1.683) log10 CFU sputum
same,"P. aeruginosa density, median",[7],6.90 log10 CFU sputum
